Laboratory results published in patent US20250121076A1, “POLYPEPTIDE DRUG CONJUGATE HAVING NOVEL STRUCTURE AND APPLICATION THEREOF” (MEDSHINE DISCOVERY INC., priority 2021, published 2025).
Where a name gives a salt, the structure may show the parent alone. Read-outs that look alike come from different tables or passages of the source. Starred links: 1 amine or outer side, 2 acyl side, 3 side chain; linkers in the order of their positions; H or OH if unused. Positions of bridges follow the written chain, without caps; N, C: chain ends. Non-standard residues stand in square brackets, D forms with d. Residues, ends and D or L forms follow the SMILES beside them. Chains are numbered I, II in the order given. *: point of attachment. TATA = O=C(CC[*:1])N1CN(C(=O)CC[*:2])CN(C(=O)CC[*:3])C1; Dolaproine = CO[C@@H]([C@@H]1CCCN1)[C@@H](C)C(=O)O; Dil = CC[C@H](C)[C@H](NC)[C@@H](CC(=O)O)OC; X2 = O=C(CCCC(=O)[*:2])NCCC(=O)[*:1]; PABC = O=C(OCc1ccc(N[*:1])cc1)[*:2]; X1 = C[C@@H](N*)[C@@H](O)c1ccccc1; Hyp = O=C(O)[C@@H]1C[C@@H](O)CN1; hArg = N=C(N)NCCCC[C@H](N)C(=O)O; Cit = NC(=O)NCCC[C@H](N)C(=O)O; Pen = CC(C)(S)[C@H](N)C(=O)O; NMeV = CN[C@H](C(=O)O)C(C)C; hCys = N[C@@H](CCS)C(=O)O; Sar = CNCC(=O)O

Legend:
Human EphA2 = target: T1, Human EphA2 (Homo sapiens, UniProt P29317); test: Binding capacity test to EphA2 protein (SPR, Biacore 8K)
T1 construct: purchased Sino Biological 13926-H08HD
T1 sequence (P29317 24-534 limits assumed): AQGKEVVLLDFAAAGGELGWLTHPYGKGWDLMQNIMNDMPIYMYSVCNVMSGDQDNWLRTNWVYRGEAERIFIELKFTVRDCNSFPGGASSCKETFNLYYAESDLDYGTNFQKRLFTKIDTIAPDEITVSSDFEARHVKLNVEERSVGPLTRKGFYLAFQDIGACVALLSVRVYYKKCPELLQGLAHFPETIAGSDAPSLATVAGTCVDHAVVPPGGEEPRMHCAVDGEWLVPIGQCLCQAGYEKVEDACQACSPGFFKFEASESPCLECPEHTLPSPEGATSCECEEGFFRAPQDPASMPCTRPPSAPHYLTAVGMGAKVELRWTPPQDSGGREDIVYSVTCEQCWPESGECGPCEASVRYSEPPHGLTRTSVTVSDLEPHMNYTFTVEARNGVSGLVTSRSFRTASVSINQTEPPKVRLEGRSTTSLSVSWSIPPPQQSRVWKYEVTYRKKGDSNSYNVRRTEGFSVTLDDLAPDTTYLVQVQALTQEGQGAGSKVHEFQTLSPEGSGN
Method: To detect the affinity of the compound to be tested to the target protein EphA2 using the SPR method.
• Biacore 8K (GE Healthcare). • 96-well Plate (Cat #650101, greiner bio-one) • CM5 chip (Cat #BR-1005-30, GE Healthcare) • Amine Coupling Kit (Cat #BR-1000-50, GE Healthcare) EDC NHS 1 M ethanolamine. • 10 mM sodium acetate pH 4.5 (Cat #BR-1003-50, GE Healthcare) • DMSO (Cat #D4540, Sigma) • P20 (Cat #BR-1000-54, GE Healthcare). • PBS (Cat #BR-1006-72, GE Healthcare). • EphA2 (Cat #13926-H08HD, Sino Biological)
In this experiment, the amino coupling method was used. The target protein EphA2 was directly immobilized on the CM5 chip using Biacore 8K. The compound to be tested as an analyte was then diluted to a required concentration gradient with a buffer (10 mM PBS, pH 7.4, 137 mM NaCl, 2.7 mM KCl, 5% DMSO, and 0.05% P20) for multi-cycle kinetic detection, in which each cycle is formed by 180 seconds of sample injection and 180 seconds of dissociation, and then the next cycle was performed, to obtain kinetic analysis data on the affinity of the target protein EphA2 to the compound to be tested. The final data were subjected to Kinetics fitting analysis based on a 1:1 model using Biacore Insight Evaluation Software (V 2.0.15.12933).
1) Preparation of the buffer: 10 mM PBS, pH 7.4, 137 mM NaCl, 2.7 mM KCl, 5% DMSO, and 0.05% P20.
2) Activation of the CM5 chip: The CM5 chip was activated with 400 mM EDC and 100 mM NHS at a flow rate of 10 μL/min for 420 seconds.
3) Coupling of the target protein: The target protein was diluted to 10 μg/mL with 10 mM sodium acetate (pH 4.5) and coupled at a flow rate of 10 μL/min for 284 s. The 1 #, 2 #, and 3 #channels on the chip were used in the experiment, and the coupling results were 1639.9RU, 1747.8RU, and 1702.2RU, respectively.
4) Blocking of the CM5 chip: The CM5 chip was blocked with 1 M ethanolamine at a flow rate of 10 μL/min for 420 seconds.
5) Analyte concentration: The compound to be tested was diluted with the buffer. The compound to be tested was diluted from 100 nM to 0.78 nM in a 2-fold gradient.
6) Sample injection analysis: Each concentration of the working solution of the compound to be tested corresponded to one cycle, with a flow rate of 30 μL/min for binding for 180 seconds and dissociating for 180 seconds. The last cycle was a 5% DMSO solvent correction cycle. 7) All results were subjected to kinetics fitting analysis based on a 1:1 model.
The experimental data of five effective concentrations of the compounds of the present invention were selected for Kinetics fitting analysis based on a 1:1 model using Biacore Insight Evaluation Software (V 2.0.15.12933).

[1] = Pharmacokinetic analysis in Cynomolgus macaque plasma; type: in vivo, Cynomolgus macaques; conditions: MMAE as potential metabolite in plasma after single IV 1 mg/kg acetate salt of PDC_8, Cynomolgus macaques
Method: To test the pharmacokinetics of the compounds of the present invention in Cynomolgus macaques.
(§1) The pharmacokinetic characteristics of the compound after intravenous injection and oral administration were tested in Cynomolgus macaques according to a standard protocol. The compound of the present invention was formulated into a clear solution using 50 mM acetate buffer (pH=5) in 10% sucrose as a vehicle. Two Cynomolgus macaques were given a single intravenous injection of 1 mg/kg of the compound to be tested. Whole blood was collected at time points of 0.083, 0.25, 0.5, 1, 2, 4, 8, and 24 hours after administration to get plasma. The concentration of the compound to be tested and the concentration of its potential metabolite MMAE were analyzed by the LC-MS/MS method, and the pharmacokinetic parameters were calculated by Phoenix WinNonlin software.

[2] = Pharmacokinetic analysis in rat plasma at different doses (6.2); type: in vivo, SD rats
Method: (§2) Experimental purpose: To test the pharmacokinetics of the compounds of the present invention in SD rats.
6.2 The pharmacokinetic characteristics of the compound after intravenous injection and oral administration were tested in rats according to a standard protocol. The compound to be tested was formulated into a clear solution using 50 mM acetate buffer (pH=5) in 10% sucrose as a vehicle. Three male SD rats were given a single intravenous injection of 2.5 mg/kg, 3.75 mg/kg, or 5 mg/kg of the compound to be tested. Whole blood was collected at time points of 0.083, 0.25, 0.5, 1, 4, and 24 hours after administration to get plasma. The concentration of the compound to be tested and the concentration of its potential metabolite MMAE were analyzed by the LC-MS/MS method, and the pharmacokinetic parameters were calculated.

[3] = In vivo pharmacokinetic analysis in mice; parameters: species or system CD-1 mice; conditions: MMAE as potential metabolite in plasma after single IV 2 mg/kg acetate salt of PDC_8, CD-1 mice
Method: To test the pharmacokinetics of the compounds of the present invention in CD-1 mice
as §1, with “in CD-1 mice” for “in Cynomolgus macaques”, “Two mice” for “Two Cynomolgus macaques”, “of 2” for “of 1”, “pharmacokinetic parameters, such as maximal concentration (Cmax), clearance (Cl), half-life (T1/2), […] (Vdss), and area under the concentration-time curve (AUC0-last),” for “pharmacokinetic parameters”

[4] = Pharmacokinetic analysis in rat plasma (6.1, 2 mg/kg); type: in vivo, SD rats; conditions: MMAE as potential metabolite in plasma after single IV 2 mg/kg acetate salt of PDC_8, SD rats
Method: as §2
as §1, with “6.1 The pharmacokinetic” for “The pharmacokinetic”, “tested in rats according to” for “tested in Cynomolgus macaques according to”, “The compound to be tested was formulated” for “The compound of the present invention was formulated”, “vehicle. Two SD rats were given” for “vehicle. Two Cynomolgus macaques were given”, “injection of 2 mg/kg of” for “injection of 1 mg/kg of”

[5] = MMAE as potential metabolite after single IV 2.5 mg/kg acetate salt of PDC_8, male SD rats
[6] = MMAE as potential metabolite after single IV 3.75 mg/kg acetate salt of PDC_8, male SD rats
[7] = MMAE as potential metabolite after single IV 5 mg/kg acetate salt of PDC_8, male SD rats

CC[C@H](C)[C@@H]([C@@H](CC(=O)N1CCC[C@H]1[C@H](OC)[C@@H](C)C(=O)N[C@H](C)[C@@H](O)c1ccccc1)OC)N(C)C(=O)[C@@H](NC(=O)[C@H](C(C)C)N(C)C(=O)OCc1ccc(NC(=O)[C@H](CCCNC(N)=O)NC(=O)[C@@H](NC(=O)CCCC(=O)NCCC(=O)N(C)CC(=O)N(C)CC(=O)N(C)CC(=O)N(C)CC(=O)N(C)CC(=O)N(C)CC(=O)N(C)CC(=O)N(C)CC(=O)N(C)CC(=O)N(C)CC(=O)N[C@H]2CCCCNC(=O)C[C@@H](C(=O)N[C@@H]3C(=O)N4C[C@H](O)C[C@H]4C(=O)N[C@@H](CC(C)C)C(=O)N[C@@H](C(C)C)C(=O)N[C@@H](CC(N)=O)C(=O)N4CCC[C@H]4C(=O)N[C@@H](CC(C)C)C(=O)N[C@H]4CSCCC(=O)N5CN(CN(C5)C(=O)CCSC3(C)C)C(=O)CCSC[C@@H](C(N)=O)NC(=O)[C@H](CCCCNC(=N)N)NC(=O)[C@H](Cc3c[nH]c5ccccc35)NC(=O)[C@@H](CC(=O)O)NC(=O)[C@@H]3CCCN3C(=O)[C@H](Cc3c[nH]cn3)NC(=O)[C@H](CC(C)C)NC4=O)NC(=O)[C@H](CCCCNC(=N)N)NC2=O)C(C)C)cc1)C(C)C [Acetate salt of PDC_7] (I: [Sar][Sar][Sar][Sar][Sar][Sar][Sar][Sar][Sar][Sar]K[hArg]D[Pen][Hyp]LVNPLCLHP[dD]W[hArg]C-NH2 / II: V[Cit][PABC][NMeV]V[Dil][Dolaproine]-X1; lactam I:11-I:13; linker I:14-I:21-I:28 via TATA; linker I:N-II:N via X2)
Kd (Human EphA2): 8.39 nM

CC[C@H](C)[C@@H]([C@@H](CC(=O)N1CCC[C@H]1[C@H](OC)[C@@H](C)C(=O)N[C@H](C)[C@@H](O)c1ccccc1)OC)N(C)C(=O)[C@@H](NC(=O)[C@H](C(C)C)N(C)C(=O)OCc1ccc(NC(=O)[C@H](CCCNC(N)=O)NC(=O)[C@@H](NC(=O)CCCC(=O)NCCC(=O)N(C)CC(=O)N(C)CC(=O)N(C)CC(=O)N(C)CC(=O)N(C)CC(=O)N(C)CC(=O)N(C)CC(=O)N(C)CC(=O)N(C)CC(=O)N(C)CC(=O)N[C@@H](C)C(=O)N[C@@H](CCCCNC(=N)N)C(=O)N[C@@H](CC(=O)O)C(=O)N[C@H]2CCSCCC(=O)N3CN4CN(C3)C(=O)CCSC[C@H](NC(=O)[C@H](CC(C)C)NC(=O)[C@@H]3CCCN3C(=O)[C@H](CC(N)=O)NC(=O)[C@H](C(C)C)NC(=O)[C@H](CC(C)C)NC(=O)[C@@H]3C[C@@H](O)CN3C2=O)C(=O)N[C@@H](CC(C)C)C(=O)N[C@@H](Cc2c[nH]cn2)C(=O)N2CCC[C@H]2C(=O)N[C@H](CC(=O)O)C(=O)N[C@@H](Cc2c[nH]c3ccccc23)C(=O)N[C@@H](CCCCNC(=N)N)C(=O)N[C@H](C(N)=O)CSCCC4=O)C(C)C)cc1)C(C)C [Acetate salt of PDC_2, MMAE-PABC-Cit-Val-Glutaryl-β-Ala-Sar10-Ala-hArg-Asp-hCys-Hyp-Leu-Val-Asn-Pro-Leu-Cys-Leu-His-Pro-dAsp-Trp-hArg-Cys-NH2, TATA] (I: [Sar][Sar][Sar][Sar][Sar][Sar][Sar][Sar][Sar][Sar]A[hArg]D[hCys][Hyp]LVNPLCLHP[dD]W[hArg]C-NH2 / II: V[Cit][PABC][NMeV]V[Dil][Dolaproine]-X1; linker I:14-I:21-I:28 via TATA; linker I:N-II:N via X2)
Kd (Human EphA2; read-out: Human EphA2 SPR kD, SPR, kinetics fit 1:1 model): 33 nM

CC[C@H](C)[C@@H]([C@@H](CC(=O)N1CCC[C@H]1[C@H](OC)[C@@H](C)C(=O)N[C@H](C)[C@@H](O)c1ccccc1)OC)N(C)C(=O)[C@@H](NC(=O)[C@@H](NC)C(C)C)C(C)C [MMAE, monomethyl auristatin E] (H-[NMeV]V[Dil][Dolaproine]-X1)
AUC0-last [1]: 0.0288 µM·h
Cmax [1]: 5.6 nM
AUC0-last [2, 5]: 0.058 µM·h
Cmax [2, 5]: 29 nM
AUC0-last [2, 6]: 0.185 µM·h
Cmax [2, 6]: 39 nM
AUC0-last [2, 7]: 0.435 µM·h
Cmax [2, 7]: 52 nM
AUC0-last [3]: 0.0515 µM·h
Cmax [3]: 55 nM
AUC0-last [4]: 0.0374 µM·h
Cmax [4]: 23.5 nM

CC[C@H](C)[C@@H]([C@@H](CC(=O)N1CCC[C@H]1[C@H](OC)[C@@H](C)C(=O)N[C@H](C)[C@@H](O)c1ccccc1)OC)N(C)C(=O)[C@@H](NC(=O)[C@H](C(C)C)N(C)C(=O)OCc1ccc(NC(=O)[C@H](CCCNC(N)=O)NC(=O)[C@@H](NC(=O)CCCC(=O)NCCC(=O)N(C)CC(=O)N(C)CC(=O)N(C)CC(=O)N(C)CC(=O)N(C)CC(=O)N(C)CC(=O)N(C)CC(=O)N(C)CC(=O)N(C)CC(=O)N(C)CC(=O)N[C@H]2CCCCNC(=O)C[C@@H](C(=O)N[C@H]3CCSCCC(=O)N4CN5CN(C4)C(=O)CCSC[C@H](NC(=O)[C@H](CC(C)C)NC(=O)[C@@H]4CCCN4C(=O)[C@H](CC(N)=O)NC(=O)[C@H](C(C)C)NC(=O)[C@H](CC(C)C)NC(=O)[C@@H]4C[C@@H](O)CN4C3=O)C(=O)N[C@@H](CC(C)C)C(=O)N[C@@H](Cc3c[nH]cn3)C(=O)N3CCC[C@H]3C(=O)N[C@H](CC(=O)O)C(=O)N[C@@H](Cc3c[nH]c4ccccc34)C(=O)N[C@@H](CCCCNC(=N)N)C(=O)N[C@H](C(N)=O)CSCCC5=O)NC(=O)[C@H](CCCCNC(=N)N)NC2=O)C(C)C)cc1)C(C)C [Acetate salt of PDC_6] (I: [Sar][Sar][Sar][Sar][Sar][Sar][Sar][Sar][Sar][Sar]K[hArg]D[hCys][Hyp]LVNPLCLHP[dD]W[hArg]C-NH2 / II: V[Cit][PABC][NMeV]V[Dil][Dolaproine]-X1; lactam I:11-I:13; linker I:14-I:21-I:28 via TATA; linker I:N-II:N via X2)
Kd (Human EphA2): 5.67 nM
